Tests used:
[1] = solubility of TCE in water as a function of temperature (Dickson-type autoclave); assay type: physicochemical; settings: at 298 K; calculated from solubility measured from 298 to 398 K at constant pressure
Description: (§1) The static autoclave experiments are run in Dickson-type, gold-bag rocking autoclaves. The autoclave reaction vessel uses a flexible gold bag sealed with a passivated titanium head and is contained within a large steel pressure vessel. The autoclave design allows periodic sampling of the reaction cell under in situ conditions throughout the course of an experiment without disturbing the temperature and pressure of the run. During the experiment the solution contacts only gold and passivated titanium so that unwanted surface catalytic effects are eliminated. Various combinations of solid, liquid or gaseous catalysts or oxidants are introduced into the reactor in order to study their effects on reaction mechanisms and rates. The sampled fluids and gases are analyzed using a variety of analytical techniques including ICP-ES, IC, GC (using purge and trap), gas MS, GC/MS, and HPLC.
A Dickson-type autoclave, as described above, equipped with a precision high pressure liquid chromatography pump to control pressure was used to measure the solubility of TCE in water as a function of temperature from 298 to 398 K at constant pressure. Obtained results were used to calculate the partial molal thermodynamic quantities for the dissolution reaction of TCE in water at 298 K: ΔGsoln=11.1 (±0.71) KJ/mol, ΔHsoln=3.075 (±0.525) KJ/mol and ΔSsoln=−28.29 (±1.61) J/mol-K.

[2] = hydrous pyrolysis/oxidation of TCE dissolved in water with dissolved oxygen; assay type: physicochemical; settings: temperatures above 90° C.
Description: as §1
All experiments are conducted in non-reactive flexible gold bag hydrothermal systems, so that complications due to experimental artifacts from catalysis by the equipment itself are avoided, and both temperature and pressure can be precisely controlled. Many samples can be taken and tested as the reaction proceeds without affecting the conditions of the reaction itself. […]

ClC=C(Cl)Cl [TCE, trichloroethylene]
ΔGsoln, partial molal quantity for the dissolution reaction in water [1]: 11.1 (±0.71) KJ/mol
ΔHsoln, partial molal quantity for the dissolution reaction in water [1]: 3.075 (±0.525) KJ/mol
ΔSsoln, partial molal quantity for the dissolution reaction in water [1]: −28.29 (±1.61) J/mol-K
decrease of concentration by hydrous pyrolysis/oxidation ([2]; initial runs with high starting concentrations (up to ≧600 ppm)): ≤ 10,000 fold
concentration eventually reached (drinking water MCL) ([2]; initial runs with high starting concentrations): 5 ppb

Reference: patent publication US6387278B1, “Increasing subterranean mobilization of organic contaminants and petroleum by aqueous thermal oxidation” (The Regents of the University of California, priority 2000, dated 2002)
